Reference: ChEMBL document CHEMBL2417521, “Class A G-protein-coupled receptor (GPCR) dimers and bivalent ligands” (J Med Chem, 2013)

Assays:
HEK293 = test: Selectivity ratio of EC50 for mu/kappa opioid receptor in HEK293 cells to EC50 for mu opioid receptor in HEK293 cells; format: cell-based; conditions: Homo sapiens
[1] = biological target: Dopamine receptor D2L/neurotensin receptor NTS1 (Homo sapiens) (UniProt P14416+P30989); test: Ratio of Ki for D2L/NTS1 (unknown origin) expressed in HEK293 cell membrane in presence of neurotensin to Ki for D2L/NTS1 (unknown origin) expressed in HEK293 cell membrane in absence of neurotensin; format: cell-based

Row | SMILES | Ratio EC50 (HEK293) | Ratio Ki [1]
1 | O=C(N[C@@H]1CC[C@@]2(O)[C@H]3Cc4ccc(O)c5c4[C@@]2(CCN3CC2CC2)[C@H]1O5)c1ccc2ccccc2c1 | 1000 | –
2 | CCCN(CCCCNC(=O)c1cnn2ccccc12)C1Cc2ccccc2C1 | – | 34
